Results as given in patent US20250179059A1 (The Regents of the University of California, priority 2021, published 2025).

Experiments:
[1] = system: human SKM-1 acute myeloid leukemia cells; assay: SKM-1 antiproliferation cell-based assay (ATPlite); details: Homo sapiens, SKM-1, 96 h, SKM-1 antiproliferation assay, 4 days, Table C2
In short: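 Log-phase cells in RPMI 1640/15% FBS were seeded at 34722 cells/mL and exposed for 4 days to nine-concentration DMSO serial dilutions in triplicate. Viability was read as ATP luminescence (ATPlite 1step), and IC50 values came from variable-slope non-linear regression.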

[2] = target: T1, human BRD4 bromodomain II (Homo sapiens, UniProt O60885); assay: Bromodomain binding assay (AlphaScreen), BRD4 BDII; details: AlphaScreen assay, Table C2; read-out: BRD4 BDII IC50
T1 construct: human BRD4 bromodomain II [based on Genbank NM_058243, residues 349-460]; host or cells: E. coli
In short: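 Read-out is AlphaScreen signal (ex 680 nm, em 520-620 nm) from streptavidin donor beads on a biotinylated acetylated histone H4 (aa 1-21) peptide and nickel acceptor beads on the His6-tagged bromodomain. IC50 values come from curve fits of percentage peptide binding against compound concentration.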

Work on `COCCCN1CCN(c2cc(-c3cc(F)cc(-c4ccc(-n5ccn(C)c5=O)c(Cl)c4)c3O)ccn2)CC1` [Example 633, 1-(3-chloro-5′-fluoro-2′-hydroxy-3′-(2-(4-(3-methoxypropyl)piperazin-1-yl)pyridin-4-yl)-[1,1′-biphenyl]-4-yl)-3-methyl-1H-imidazol-2(3H)-one] yielded a GI50 [1] of 0.3 to 30 nM and an IC50 [2] of 0.01 to 1 nM.
Work on `Cn1ccn(-c2ccc(-c3cc(F)cc(-c4ccnc(N5CCN(C6CCOCC6)CC5)c4)c3O)cc2Cl)c1=O` [Example 634, 1-(3-chloro-5′-fluoro-2′-hydroxy-3′-(2-(4-(tetrahydro-2H-pyran-4-yl)piperazin-1-yl)pyridin-4-yl)-[1,1′-biphenyl]-4-yl)-3-methyl-1H-imidazol-2(3H)-one] yielded a GI50 [1] of 0.3 to 30 nM and an IC50 [2] of 0.01 to 1 nM.
Compound `Cn1ccn(-c2ccc(-c3cc(F)cc(-c4ccnc(N5CC[C@H](N6CCOCC6)C5)c4)c3O)cc2Cl)c1=O` [Example 635, (S)-1-(3-chloro-5′-fluoro-2′-hydroxy-3′-(2-(3-morpholinopyrrolidin-1-yl)pyridin-4-yl)-[1,1′-biphenyl]-4-yl)-3-methyl-1H-imidazol-2(3H)-one] has a GI50 [1] of 0.3 to 30 nM and an IC50 [2] of 1 to 10 nM.
`Cn1ccn(-c2ccc(-c3cc(F)cc(-c4ccnc(N5CCC6(CCCN6)C5)c4)c3O)cc2Cl)c1=O` (centres unmarked) [Example 636, 1-(3′-(2-(1,7-diazaspiro[4.4]nonan-7-yl)pyridin-4-yl)-3-chloro-5′-fluoro-2′-hydroxy-[1,1′-biphenyl]-4-yl)-3-methyl-1H-imidazol-2(3H)-one] was tested, and the GI50 [1] was 0.3 to 30 nM and the IC50 [2] was 0.01 to 1 nM.
With `CN1CCCC12CCN(c1cc(-c3cc(F)cc(-c4ccc(-n5ccn(C)c5=O)c(Cl)c4)c3O)ccn1)C2` (centres unmarked) [Example 637, 1-(3-chloro-5′-fluoro-2′-hydroxy-3′-(2-(1-] the GI50 [1] was 0.3 to 30 nM and the IC50 [2] was 0.01 to 1 nM.
Compound `C[C@@H]1CN(c2cc(-c3cc(F)cc(-c4ccc(-n5ccn(C)c5=O)c(Cl)c4)c3O)cc(OCCCO)n2)CCN1` [Example 638, (R)-1-(3-chloro-5′-fluoro-2′-hydroxy-3′-(2-(3-hydroxypropoxy)-6-(3-methylpiperazin-1-yl)pyridin-4-yl)-[1,1′-biphenyl]-4-yl)-3-methyl-1H-imidazol-2(3H)-one] has a GI50 [1] of 0.3 to 30 nM and an IC50 [2] of 0.01 to 1 nM.
For `Cn1ccn(-c2ccc(-c3cc(F)cc(-c4ccnc(N5CCN[C@H](C(C)(C)O)C5)c4)c3O)cc2Cl)c1=O` [Example 639, (S)-1-(3-chloro-5′-fluoro-2′-hydroxy-3′-(2-(3-(2-hydroxypropan-2-yl)piperazin-1-yl)pyridin-4-yl)-[1,1′-biphenyl]-4-yl)-3-methyl-1H-imidazol-2(3H)-one], the GI50 [1] was 0.3 to 30 nM and the IC50 [2] was 0.01 to 1 nM.
Compound `Cn1ccn(-c2ccc(-c3cc(F)cc(-c4ccnc(N5CCNC(CCO)C5)c4)c3O)cc2Cl)c1=O` (centres unmarked) [Example 640, 1-(3-chloro-5′-fluoro-2′-hydroxy-3′-(2-(3-(2-hydroxyethyl)piperazin-1-yl)pyridin-4-yl)-[1,1′-biphenyl]-4-yl)-3-methyl-1H-imidazol-2(3H)-one] has a GI50 [1] of 0.3 to 30 nM and an IC50 [2] of 0.01 to 1 nM.
Work on `Cn1ccn(-c2ccc(-c3cc(F)cc(-c4ccnc(N5CCC6(CCN6)C5)c4)c3O)cc2Cl)c1=O` (centres unmarked) [Example 641, 1-(3′-(2-(1,6-diazaspiro[3.4]octan-6-yl)pyridin-4-yl)-3-chloro-5′-fluoro-2′-hydroxy-[1,1′-biphenyl]-4-yl)-3-methyl-1H-imidazol-2(3H)-one] yielded a GI50 [1] of 0.3 to 30 nM and an IC50 [2] of 0.01 to 1 nM.
`CN1CCC12CCN(c1cc(-c3cc(F)cc(-c4ccc(-n5ccn(C)c5=O)c(Cl)c4)c3O)ccn1)C2` (centres unmarked) [Example 642, 1-(3-chloro-5′-fluoro-2′-hydroxy-3′-(2-(1-methyl-1,6-diazaspiro[3.4]octan-6-yl)pyridin-4-yl)-[1,1′-biphenyl]-4-yl)-3-methyl-1H-imidazol-2(3H)-one] showed a GI50 [1] of 0.3 to 30 nM and an IC50 [2] of 0.01 to 1 nM.
Compound `Cn1ccn(-c2ccc(-c3cc(F)cc(-c4ccnc(N5CCNC(C6CC6)C5)c4)c3O)cc2Cl)c1=O` (stereo not drawn) [Example 643, 1-(3-chloro-3′-(2-(3-cyclopropylpiperazin-l-yl)pyridin-4-yl)-5′-fluoro-2′-hydroxy-[1,1′-biphenyl]-4-yl)-3-methyl-1H-imidazol-2(3H)-one] has a GI50 [1] of 30 to 300 nM and an IC50 [2] of 0.01 to 1 nM.
`Cn1ccn(-c2ccc(-c3cc(F)cc(-c4ccnc(N5CCN[C@H](CC(N)=O)C5)c4)c3O)cc2Cl)c1=O` [Example 644, (R)-2-(4-(4-(3′-chloro-5-fluoro-2-hydroxy-4′-(3-methyl-2-oxo-2,3-dihydro-1H-imidazol-1-yl)-[1,1′-biphenyl]-3-yl)pyridin-2-yl)piperazin-2-yl)acetamide] was tested, and the GI50 [1] was 0.3 to 30 nM and the IC50 [2] was 0.01 to 1 nM.
For `COCCN1CCN(c2cc(-c3cc(F)cc(-c4ccc(-n5ccn(C)c5=O)c(Cl)c4)c3O)ccn2)CC1` [Example 645, 1-(3-chloro-5′-fluoro-2′-hydroxy-3′-(2-(4-(2-methoxyethyl)piperazin-1-yl)pyridin-4-yl)-[1,1′-biphenyl]-4-yl)-3-methyl-1H-imidazol-2(3H)-one], the GI50 [1] was 0.3 to 30 nM and the IC50 [2] was 0.01 to 1 nM.
`Cn1ccn(-c2ccc(-c3cc(F)cc(-c4ccnc(N5CCN(CC6CCC6)CC5)c4)c3O)cc2Cl)c1=O` [Example 646, 1-(3-chloro-3′-(2-(4-(cyclobutylmethyl)piperazin-1-yl)pyridin-4-yl)-5′-fluoro-2′-hydroxy-[1,1′-biphenyl]-4-yl)-3-methyl-1H-imidazol-2(3H)-one] gave a GI50 [1] of 0.3 to 30 nM and an IC50 [2] of 0.01 to 1 nM.
In the case of `Cn1ccn(-c2ccc(-c3cc(F)cc(-c4ccnc(N5CCN6CCOCC6C5)c4)c3O)cc2Cl)c1=O` (centres unmarked) [Example 647, 1-(3-chloro-5′-fluoro-3′-(2-(hexahydropyrazino[2,1-c][1,4]oxazin-8(1H)-yl)pyridin-4-yl)-2′-hydroxy-[1,1′-biphenyl]-4-yl)-3-methyl-1H-imidazol-2(3H)-one], the GI50 [1] is reported as 0.3 to 30 nM and the IC50 [2] is reported as 0.01 to 1 nM.
For `Cn1ccn(-c2ccc(-c3cc(F)cc(-c4ccnc(N5CC6NCCOC6C5)c4)c3O)cc2Cl)c1=O` (centres unmarked) [Example 648, 1-(3-chloro-5′-fluoro-3′-(2-(hexahydropyrrolo[3,4-b][1,4]oxazin-6(2H)-yl)pyridin-4-yl)-2′-hydroxy-[1,1′-biphenyl]-4-yl)-3-methyl-1H-imidazol-2(3H)-one], the GI50 [1] was 0.3 to 30 nM and the IC50 [2] was 0.01 to 1 nM.
`CN1CCOC2CN(c3cc(-c4cc(F)cc(-c5ccc(-n6ccn(C)c6=O)c(Cl)c5)c4O)ccn3)CC21` (centres unmarked) [Example 649, 1-(3-chloro-5′-fluoro-2′-hydroxy-3′-(2-(4-methylhexahydropyrrolo[3,4-b][1,4]oxazin-6(2H)-yl)pyridin-4-yl)-[1,1′-biphenyl]-4-yl)-3-methyl-1H-imidazol-2(3H)-one] showed a GI50 [1] of 30 to 300 nM and an IC50 [2] of 1 to 10 nM.
`C[C@@H]1CN(c2cc(-c3cc(F)cc(-c4ccc(-n5ccn(C)c5=O)c(Cl)c4)c3O)cnn2)CCN1` [Example 650, (R)-1-(3-chloro-5′-fluoro-2′-hydroxy-3′-(6-(3-methylpiperazin-1-yl)pyridazin-4-yl)-[1,1′-biphenyl]-4-yl)-3-methyl-1H-imidazol-2(3H)-one] was tested, and the GI50 [1] was 0.3 to 30 nM and the IC50 [2] was 0.01 to 1 nM.
Work on `Cn1ccn(-c2ccc(-c3cc(F)cc(-c4ccnc(N5CCN(CC(C)(C)C)CC5)c4)c3O)cc2Cl)c1=O` [Example 651, 1-(3-chloro-5′-fluoro-2′-hydroxy-3′-(2-(4-neopentylpiperazin-1-yl)pyridin-4-yl)-[1,1′-biphenyl]-4-yl)-3-methyl-1H-imidazol-2(3H)-one] yielded a GI50 [1] of 30 to 300 nM and an IC50 [2] of 0.01 to 1 nM.
For `Cn1ccn(-c2ccc(-c3cc(F)cc(-c4ccnc(N5CCN(CC(C)(C)C#N)CC5)c4)c3O)cc2Cl)c1=O` [Example 652, 3-(4-(4-(3′-chloro-5-fluoro-2-hydroxy-4′-(3-methyl-2-oxo-2,3-dihydro-1H-imidazol-1-yl)-[1,1′-biphenyl]-3-yl)pyridin-2-yl)piperazin-1-yl)-2,2-dimethylpropanenitrile], the GI50 [1] was 30 to 300 nM and the IC50 [2] was 0.01 to 1 nM.
`Cn1ccn(-c2ccc(-c3cc(F)cc(-c4ccnc(N5CCN[C@H](CC(=O)O)C5)c4)c3O)cc2Cl)c1=O` [Example 653] showed a GI50 [1] of 300 to 3000 nM and an IC50 [2] of 0.01 to 1 nM.
For `Cn1ccn(-c2ccc(-c3cc(F)cc(-c4ccnc(C5CCCNC5)c4)c3O)cc2Cl)c1=O` (centres unmarked) [Example 654, 1-(3-chloro-5′-fluoro-2′-hydroxy-3′-(2-(piperidin-3-yl)pyridin-4-yl)-[1,1′-biphenyl]-4-yl)-3-methyl-1H-imidazol-2(3H)-one], the GI50 [1] was 0.3 to 30 nM and the IC50 [2] was 0.01 to 1 nM.
`Cn1ccn(-c2ccc(-c3cc(F)cc(-c4ccnc(N5CC6CCNC6C5)c4)c3O)cc2Cl)c1=O` (centres unmarked) [Example 655, 1-(3-chloro-5′-fluoro-3′-(2-(hexahydropyrrolo[3,4-b]pyrrol-5(1H)-yl)pyridin-4-yl)-2′-hydroxy-[1,1′-biphenyl]-4-yl)-3-methyl-1H-imidazol-2(3H)-one] gave a GI50 [1] of 0.3 to 30 nM and an IC50 [2] of 0.01 to 1 nM.
`Cn1ccn(-c2ccc(-c3cc(F)cc(-c4ccnc(N5CC6CNC6C5)c4)c3O)cc2Cl)c1=O` (centres unmarked) [Example 656, 1-(3′-(2-(3,6-diazabicyclo[3.2.0]heptan-3-yl)pyridin-4-yl)-3-chloro-5′-fluoro-2′-hydroxy-[1,1′-biphenyl]-4-yl)-3-methyl-1H-imidazol-2(3H)-one] showed a GI50 [1] of 0.3 to 30 nM and an IC50 [2] of 0.01 to 1 nM.
Work on `Cn1ccn(-c2ccc(-c3cc(F)cc(-c4ccnc(C5=CCCNC5)c4)c3O)cc2Cl)c1=O` [Example 657, 1-(3-chloro-5′-fluoro-2′-hydroxy-3′-(1′,2′,5′,6′-tetrahydro-[2,3′-bipyridin]-4-yl)-[1,1′-biphenyl]-4-yl)-3-methyl-1H-imidazol-2(3H)-one] yielded a GI50 [1] of 0.3 to 30 nM and an IC50 [2] of 0.01 to 1 nM.
